According to patent US20190247405A1, “TREATMENT OF SMA” (Hoffmann-La Roche Inc., priority 2016, published 2019):
Entries after “also recorded” stand apart in the source; their conditions may differ.

Columns and labels:
[1] = tested on: SMNF7/F7; NSE-Cre mice (SMA transgenic mice); experiment: Survival and body weight in transgenic mouse model of SMA; assay type: in vivo; conditions: for mice still alive at 40 days: Conclusion section (vehicle 15%); for animals still alive after 40 days: Results section (vehicle 15%)
Description: Deletion of the smn gene is lethal in mice (early embryonic lethality). Mutant mice with deletion of smn exon7 restricted to neurons (NSE-Cre; SMNF7/F7, referred to here as SMA transgenic mice) are viable and display a phenotype similar to that described in human patients suffering from the severe types of spinal muscular atrophy (Frugier T., Tiziano F D et al. Hum Mol Genet. 2000, 9, 849-858.)
A pre-clinical study has been carried out on transgenic mouse model of SMA in the severe modelSMN^F7/F7; NSE-Cre with Olesoxime to test for signs of possible efficacy to treats SMA patients.
Endpoint scores included survival (daily observation), body weight (animals were weighed 3 times/week).
Olesoxime (powder) was mixed with Cremophore EL (SIGMA C5135), absolute ethanol (CARLO ERBA RPE 414571) and DMSO (ALLDRICH 27685-5) ([…], respective % of the final volume). After complete dissolution, PBS (phosphate buffered saline) was added (85% of the final volume). Solutions were prepared in volumes sufficient for 3 days; vehicle placebo consisted in the same mixture of excipients without the active principle. Daily treatment (subcutaneous injections, 10 ml/kg) started from P21 to death. Effected mice were killed by cervical dislocation when they became unable to feed, according to ethical considerations or around 45 days for control mice. Experiments were performed blind.
“log Rank”, also called “Mantel-Haenszel” was the statistic test being used to compare the two survival curves. It is a type “Khi2” test that was already available in the library “survival” from R. software (http://lib.stat.cmu.edu/R/CRAN).
The test was applied simultaneously on the 3 groups of mice and for all five stages.
All the mice which died before day 26 were removed from the study. There were 8 in total.

[2] = tested on: patients aged 3-25 years with type 2 or non-ambulatory type 3 SMA; experiment: Randomized, double-blind, placebo-controlled Phase 2 study (NCT01302600) of olesoxime; assay type: in vivo, human; conditions: 100 mg/ml oral liquid suspension, 10 mg/kg per day
Description: A randomized double blind, placebo-controlled, phase 2 study on olesoxime (NTC01302600) was performed on SMA type II and type III patients aged 3 to 25 years.
A randomized, double-blind, placebo-controlled, Phase 2 study (NCT01302600) was performed in 22 secondary care centres in Belgium, France, Germany, Italy, Netherlands, Poland and the UK. Safety and efficacy of olesoxime (TRO19622/RG6083) were assessed in patients aged 3-25 years with type 2 or non-ambulatory type 3 SMA confirmed by weakness and hypotonia, genetic diagnosis, Motor Function Measure (MFM) domains 1 and 2 (D1+D2) relative score (percentage of the maximum sum)≥15% and Hammersmith Functional Motor Scale (HFMS) score at baseline≥3 (non-ambulant≤38). […]
MFM is a validated quantitative scale allowing measurement of the functional motor abilities of an individual affected by a neuromuscular disease, regardless of the diagnosis and the extent of motor deficiencies (Vuillerot et al. Arch Phys Med Rehabil 2013; 94(8): 1555-61). […] Each item is scored on a 4-point (0-3) Likert type scale, where each option contains a clear indication of the level to which the patient has achieved the functional task and higher scores reflect better functional ability. […]
A total score, in addition to the three dimensions, can be calculated, with all scores expressed as a percentage of the maximum possible sum of the item scores. […]

[3] = tested on: MFM D1+D2 score in SMA patients; experiment: Longitudinal kinetic-pharmacodynamic (KPD) exposure-response analysis and simulations on Phase 2 PK and MFM D1+D2 data; set-up: species or system human
Description: The pharmacokinetics (PK) and efficacy data from the herewith referred clinical trial study were used to investigate the relationship between olesoxime pharmacokinetic exposure (i.e., average trough concentration Caverage) and the primary efficacy outcome (i.e.: MFM D1+D2 score). A longitudinal kinetic-pharmacodynamic (KPD) approach was applied [Jacqmin et al., 2007]. In the placebo group the progression of the disease over time was best described by a linear function (slope of −0.0201 unit/week with relative standard error of 27%). […] (Data on file).
Simulations were conducted by using this exposure-response function and its associated uncertainty.

CC(C)CCC[C@@H](C)[C@H]1CC[C@H]2[C@@H]3CCC4=CC(=NO)CC[C@]4(C)[C@H]3CC[C@]12C [olesoxime, Cholest-4-en-3-one oxime]
mice still alive at 40 days ([1]; 10 mg/kg daily s.c.): 26% | animals still alive after 40 days ([1]; 10 mg/kg daily s.c.): 25% | mice still alive at 40 days ([1]; 30 mg/kg daily s.c.): 50% | animals still alive after 40 days ([1]; 30 mg/kg daily s.c.): 45% | life span / survival ([1]; 30 mg/kg/day s.c. from day 21 to death, log rank test p<0.05 vs vehicle): significant increase in life span; also recorded: longer life span; also recorded: Improves Survival | body weight ([1]; 10 or 30 mg/kg daily s.c. vs vehicle): no difference in body weight | motor function ([2]; SMA type II and III patients): demonstrated potential to maintain motor function | tolerability ([2]; SMA type II and III patients aged 3 to 25 years): well tolerated | slope of linear exposure-response relationship (average trough concentration vs MFM D1+D2 score) ([3]; KPD model, relative standard error of 36%): 0.291 unit/ng/mL | plateau of effect in exposure-response relationship ([3]; at the dose of 10 mg): did not reach a plateau
